Results reported in the NIST ThermoML archive (doi:10.1021/je100089s).
Numbers after ± are expanded uncertainties.

What was measured:
[1] = xn = mol fraction of the nth substance listed; details: Liquid, Vibrating tube method, x1 = 1
[2] = Liquid, Vibrating tube method

C[S+](C)[O-] [dimethyl sulfoxide] + OCCO
mass density [kg/m3], [1]
Details | 101 kPa | 10000 kPa | 25000 kPa | 50000 kPa | 75000 kPa | 100000 kPa
298.15 K | 1095.36 ± 0.31 | 1101.16 ± 0.35 | 1109.51 ± 0.42 | 1122.86 ± 0.57 | – | –
308.15 K | 1085.36 ± 0.3 | 1091.6 ± 0.34 | 1100.65 ± 0.41 | 1115.13 ± 0.54 | 1128.21 ± 0.7 | 1136.76 ± 0.87
323.15 K | 1070.28 ± 0.29 | 1076.9 ± 0.32 | 1086.87 ± 0.38 | 1102.44 ± 0.51 | 1115.12 ± 0.66 | 1123.25 ± 0.81

OCCO [1,2-ethanediol]
mass density [kg/m3], [2]
Details | 101 kPa | 10000 kPa | 25000 kPa | 50000 kPa | 75000 kPa | 100000 kPa
278.15 K | 1123.77 ± 0.33 | 1127.65 ± 0.38 | 1133.2 ± 0.47 | 1141.71 ± 0.62 | 1149.55 ± 0.78 | 1157.24 ± 0.97
288.15 K | – | 1120.87 ± 0.37 | 1126.51 ± 0.45 | 1135.26 ± 0.6 | 1143.65 ± 0.76 | 1151.55 ± 0.94
298.15 K | – | 1113.97 ± 0.36 | 1119.78 ± 0.44 | 1128.78 ± 0.58 | 1137.41 ± 0.74 | 1145.51 ± 0.91
308.15 K | – | 1107.05 ± 0.36 | 1112.97 ± 0.43 | 1122.28 ± 0.56 | 1131.41 ± 0.72 | 1139.57 ± 0.88
323.15 K | 1092.12 ± 0.3 | – | – | 1112.75 ± 0.54 | 1122.55 ± 0.68 | 1130.66 ± 0.84

C[S+](C)[O-] [dimethyl sulfoxide]
mass density [kg/m3], [2]
Details | 101 kPa | 10000 kPa | 25000 kPa | 50000 kPa | 75000 kPa | 100000 kPa
298.15 K | 1095.36 ± 0.31 | 1101.16 ± 0.35 | 1109.51 ± 0.42 | 1122.86 ± 0.57 | – | –
308.15 K | 1085.36 ± 0.3 | 1091.6 ± 0.34 | 1100.65 ± 0.41 | 1115.13 ± 0.54 | 1128.21 ± 0.7 | 1136.76 ± 0.87
323.15 K | 1070.28 ± 0.29 | 1076.9 ± 0.32 | 1086.87 ± 0.38 | 1102.44 ± 0.51 | 1115.12 ± 0.66 | 1123.25 ± 0.81
